Reference: patent publication US20250161306A1, “UBIQUITIN-SPECIFIC-PROCESSING PROTEASE 1 (USP1) INHIBITORS FOR THE TREATMENT OF SOLID TUMORS” (KSQ Therapeutics, Inc., priority 2022, published 2025)

Experiments:
[1] = Distribution in rat brain and plasma after single oral dose; format: in vivo, Sprague Dawley rats; settings: 100 mg/kg single oral dose; for AUC0-∞: brain
Experimental: Male and female Sprague Dawley rats were purchased from Beijing Anikeeper Biotech Co, Ltd. Animals were habituated to the environment prior to study initiation. Rats were dosed with single dose of 100 mg/kg crystalline Form 2 via oral gavage. The rats were fasted overnight prior to dosing. Animals had access to food from 2 hours post dose and free access to water throughout the study. Approximately 0.2 mL of blood was sampled via jugular vein at each time point and centrifuged at 4000G for 5 minutes at 4° C. to provide plasma. Samples were then stored in a freezer at −75±15° C. prior to LC-MS/MS analysis. Whole brain was collected after hemoperfusion and snap frozen on dry ice prior to storage at −75±15° C. Prior to LC-MS/MS analysis whole brains were weighed and homogenized with water by tissue weight (g) to water volume (ml) ratio 1:3 before analysis. Actual concentration is the measured value multiplied by the dilution factor. The PK data were described using descriptive statistics such as mean with standard deviation.

[2] = Distribution in mouse brain and plasma after repeated oral dosing; format: in vivo, female NOD SCID mice; settings: 100 or 300 mg/kg oral for 28 days
Experimental: Female NOD SCID mice of an age between 6-8 weeks and a body weight range of 18-22 g were purchased from Beijing Anikeeper Biotech Co, Ltd. Animals were habituated to the environment for at least 7 days prior to study initiation. Mice were dosed with Crystalline Form 2 at either 100 mg/kg or 300 mg/kg dose levels via oral gavage for 28 days. After 24 hours following 27 doses of compound, three mice were euthanized via CO2. After four hours following 28 doses of compound, three mice were euthanized via CO2. At each time point the whole brain was collected. In addition, approximately 0.03 mL of blood was collected at each time point and centrifuged at 4000G for 5 minutes at 4° C. to provide plasma. Samples were then stored in a freezer at −75±15° C. prior to LC-MS/MS analysis. Concentrations of compound in brain homogenates (ng/g) and plasma (ng/ml) were then analyzed using an LC-MS/MS method. The PK data were described using descriptive statistics such as mean with standard deviation.

[3] = Mouse pharmacokinetic study, single oral dose, plasma by LC-MS/MS; format: in vivo, female NOD/SCID mice; settings: for AUClast / Cmax / T1/2 / Tmax: 300 mg/kg single oral dose, plasma, 300 mg/kg
Experimental: Mouse pharmacokinetic (PK) studies were conducted using Crystalline Form A of 6-(4-cyclopropyl-6-methoxypyrimidin-5-yl)-1-(4-(1-isopropyl-4-(trifluoromethyl)-1H-imidazol-2-yl)benzyl)-1H-pyrazolo[3,4-d]pyrimidine, as disclosed herein and Crystalline Form 2 of a gentisic acid co-crystal of 6-(4-cyclopropyl-6-methoxypyrimidin-5-yl)-1-(4-(1-isopropyl-4-(trifluoromethyl)-1H-imidazol-2-yl)benzyl)-1H-pyrazolo[3,4-d]pyrimidine, as disclosed herein.
The PK studies consisted of single dose oral exposure studies, which were conducted in female NOD/SCID mice (approximately 6 to 8 weeks, and 20-30 g at the time of study) using a compound dose of 300 mg/kg and a dosing volume of 10 mL/kg. The mice were fasted overnight prior to dosing. Animals had free access to food and water post-dosing.
Blood was sampled serially from the dorsal metatarsal vein at pre-dose, 0.25, 0.5, 1, 2, 4, 8, 24, 48 (crystalline Form 2 only), and 72 hours (crystalline Form 2 only) post PO dosing. Approximately 0.03 mL blood was collected at each time point and centrifuged at 4000 G for 5 minutes at 4° C. to provide plasma. The plasma samples were then stored in a freezer at −75±15° C. prior to LC-MS/MS analysis.
Concentrations of each compound in the plasma samples were then analyzed using an LC-MS/MS method. WinNonlin (Phoenix™, version 6.1) or other similar software was used for PK calculations. The following PK parameters were calculated, whenever possible from the plasma concentration versus time data: Cmax, Tmax, T1/2, AUCinf, and AUClast. The PK data were described using descriptive statistics such as mean with standard deviation.

Question: Which “drug level in the brain tissue” value ([1]; male and female rats) does the source give for COc1ncnc(C2CC2)c1-c1ncc2cnn(Cc3ccc(-c4nc(C(F)(F)F)cn4C(C)C)cc3)c2n1 [Crystalline Form 2, 6-(4-cyclopropyl-6-methoxypyrimidin-5-yl)-1-(4-(1-isopropyl-4-(trifluoromethyl)-1H-imidazol-2-yl)benzyl)-1H-pyrazolo[3,4-d]pyrimidine] here?
Answer: measurable drug level

Question: What about the “AUC0-∞” value ([1]; Female rats) of the same compound?
Answer: 120933 ng·h/g

Question: What about the “AUC0-∞” value ([1]; Male rats) of the same compound?
Answer: 60596 ng·h/g

Question: What about the “accumulation of the drug in the brain after repeated dosing” value [2] of the same compound?
Answer: no apparent accumulation

Question: And the “drug level in the brain tissue” value [2]?
Answer: measurable drug level

Question: And the AUClast ([3]; Mean)?
Answer: 752.45 µg·h/mL

Question: And the Cmax ([3]; Mean)?
Answer: 28900 ng/mL

Question: And the T1/2 ([3]; Mean)?
Answer: 4.17 h

Question: What about the Tmax ([3]; Mean) of the same compound?
Answer: 10.7 h

Question: What about the AUClast ([3]; Mouse 7) of the same compound?
Answer: 827.348 µg·h/mL

Question: And the Cmax ([3]; Mouse 7)?
Answer: 28800 ng/mL

Question: What about the AUClast ([3]; Mouse 8) of the same compound?
Answer: 835.713 µg·h/mL

Question: What about the Cmax ([3]; Mouse 8) of the same compound?
Answer: 28900 ng/mL

Question: And the T1/2 ([3]; Mouse 8)?
Answer: 4.22 h

Question: And the Tmax ([3]; Mouse 8)?
Answer: 12.0 h

Question: And the AUClast ([3]; Mouse 9)?
Answer: 594.288 µg·h/mL

Question: What about the Cmax ([3]; Mouse 9) of the same compound?
Answer: 29000 ng/mL

Question: What about the T1/2 ([3]; Mouse 9) of the same compound?
Answer: 4.27 h

Question: And the Tmax ([3]; Mouse 9)?
Answer: 12.0 h

Question: What about the “mouse oral exposure levels compared to crystalline Form A (freebase)” value ([3]; about 300 mg/kg) of the same compound?
Answer: higher exposure levels

Question: For COc1ncnc(C2CC2)c1-c1ncc2cnn(Cc3ccc(-c4nc(C(F)(F)F)cn4C(C)C)cc3)c2n1 [Crystalline Form A, 6-(4-cyclopropyl-6-methoxypyrimidin-5-yl)-1-(4-(1-isopropyl-4-(trifluoromethyl)-1H-imidazol-2-yl)benzyl)-1H-pyrazolo[3,4-d]pyrimidine], which AUClast ([3]; Mean) is on record?
Answer: 60.663 µg·h/mL

Question: And the Cmax ([3]; Mean)?
Answer: 3697 ng/mL

Question: And the T1/2 ([3]; Mean)?
Answer: 12.7 h

Question: And the Tmax ([3]; Mean)?
Answer: 5.33 h

Question: And the AUClast ([3]; Mouse 7)?
Answer: 72.653 µg·h/mL

Question: And the Cmax ([3]; Mouse 7)?
Answer: 4450 ng/mL

Question: What about the AUClast ([3]; Mouse 8) of the same compound?
Answer: 40.678 µg·h/mL

Question: And the Cmax ([3]; Mouse 8)?
Answer: 2890 ng/mL

Question: And the Tmax ([3]; Mouse 8)?
Answer: 4.00 h

Question: What about the AUClast ([3]; Mouse 9) of the same compound?
Answer: 68.658 µg·h/mL

Question: And the Cmax ([3]; Mouse 9)?
Answer: 3750 ng/mL

Question: And the T1/2 ([3]; Mouse 9)?
Answer: 18.6 h

Question: What about the Tmax ([3]; Mouse 9) of the same compound?
Answer: 4.00 h
